Calls of active or inactive are those of the source. The calls are words filed in the database; no cut-off is given here.
What was measured:
[1] = test system: SARS-CoV-2; test: Antiviral activity against SARS-CoV-2 infected in african green monkey Vero cells assessed as reduction in number of spike-protein expressing cells pre-infected for 30 mins followed by compound addition and measured 48 hrs post-infection by DAPI staining based immunofluorescence analysis; format: functional, organism-based; settings: Severe acute respiratory syndrome coronavirus 2, Vero
[2] = Cytotoxicity against African green monkey Vero cells assessed as reduction in cell viability incubated for 48 hrs by MTT assay; format: toxicity, cell-based; settings: chlorocebus sabaeus
[3] = Selectivity index, ratio of CC50 for cytotoxicity against African green monkey Vero cells to EC50 for antiviral activity against SARS-CoV-2 infected in african green monkey Vero cells assessed as reduction in number of spike-protein expressing cells; format: toxicity, cell-based; settings: read-out: Ratio CC50/EC50
[4] = test system: SARS-CoV-2; test: (§1) Antiviral activity against SARS-CoV-2 infected in hACE2 expressing female B6.Cg-Tg(K18-ACE2)2Prlmn/J mouse model assessed as reduction in body weight loss at 50 mg/kg, po preadministered twice daily for 4 days at 8 hrs interval with four hours before and after viral challenge and measured 8 days post viral challenge; format: functional, organism-based; settings: Severe acute respiratory syndrome coronavirus 2, time 8.0 day
[5] = test system: SARS-CoV-2; test: as §1, with “measured 14” for “measured 8”; format: functional, organism-based; settings: Severe acute respiratory syndrome coronavirus 2, time 14.0 day
[6] = test system: SARS-CoV-2; test: Antiviral activity against SARS-CoV-2 infected in hACE2 expressing female B6.Cg-Tg(K18-ACE2)2Prlmn/J mouse model assessed as survival at 50 mg/kg, po preadministered twice daily for 4 days at 8 hrs interval with four hours before and after viral challenge and measured 14 days post viral challenge relative to control; format: functional; settings: Severe acute respiratory syndrome coronavirus 2, 336 h, time 14 day
[7] = test system: Severe acute respiratory syndrome coronavirus 2; test: Inhibition of SARS-CoV-2 Nsp9/Nsp12 using 5'-pppLS10 as substrate assessed as inhibition of NiRAN-mediated RNAylation of Nsp9 by measuring increase in compound-conjugated Nsp9 at 1 to 100 uM incubated for 1 hrs by coomassie blue staining based SDS-PAGE analysis; settings: dose 1-100 µM
[8] = biological target: Replicase polyprotein 1ab (Severe acute respiratory syndrome coronavirus 2) (UniProt P0DTD1); test: (§2) Inhibition of SARS-CoV-2 Nsp12-Nsp7-Nsp8-2 RNA dependent RNA polymerase activity using partially double stranded RNA as substrate assessed as generation of abortive transcripts by mis-incorporation into RNA at 100 uM incubated for 30 mins in presence of UTP by gel electrophoresis based primer extension assay
[9] = biological target: Replicase polyprotein 1ab (Severe acute respiratory syndrome coronavirus 2) (UniProt P0DTD1); test: (§3) Inhibition of SARS-CoV-2 Nsp12-Nsp7-Nsp8-2 RNA dependent RNA polymerase activity using partially double stranded RNA as substrate assessed as reduction in RNA elongation at 1 to 100 uM incubated for 30 mins in presence of UTP and GTP/CTP by gel electrophoresis based primer extension assay; settings: dose 1-100 µM
[10] = biological target: Replicase polyprotein 1ab (Severe acute respiratory syndrome coronavirus 2) (UniProt P0DTD1); test: as §3, with “as accumulation of abortive transcripts” for “as reduction in RNA elongation”, “at 2.5” for “at 1”, “to 250” for “to 100”, “of UTP,ATP” for “of UTP”; settings: dose 2.5-250 µM
[11] = biological target: Replicase polyprotein 1ab (Severe acute respiratory syndrome coronavirus 2) (UniProt P0DTD1); test: as §2, with “ATP and GTP/CTP” for “UTP”
[12] = biological target: Replicase polyprotein 1ab (Severe acute respiratory syndrome coronavirus 2) (UniProt P0DTD1); test: as §2, with “ATP” for “UTP”
[13] = biological target: Replicase polyprotein 1ab (Severe acute respiratory syndrome coronavirus 2) (UniProt P0DTD1); test: as §2, with “as” for “as generation of abortive transcripts by”, “by measuring increase in abortive transcripts length” for “at 100 uM”, “ATP” for “UTP”; settings: dose 1-100 µM
[14] = test system: Severe acute respiratory syndrome coronavirus 2; test: Inhibition of SARS-CoV-2 Nsp9/Nsp12 using 5'-pppLS10 as substrate assessed as inhibition of NiRAN-mediated RNAylation of Nsp9 by measuring increase in compound-conjugated Nsp9 incubated for 1 hrs by coomassie blue staining based SDS-PAGE analysis; settings: dose 1-100 µM
[15] = biological target: Replicase polyprotein 1ab (Severe acute respiratory syndrome coronavirus 2) (UniProt P0DTD1); test: Inhibition of SARS-CoV-2 Nsp12-Nsp7-Nsp8-2 RNA dependent RNA polymerase activity using partially double stranded RNA as substrate assessed as accumulation of abortive transcripts incubated for 30 mins in presence of UTP,ATP and GTP/CTP by gel electrophoresis based primer extension assay; settings: dose 2.5-250 µM
[16] = test system: Severe acute respiratory syndrome coronavirus 2; test: Inhibition of SARS-CoV-2 Nsp9/Nsp12 using 5'-pppLS10 as substrate assessed as inhibition of NiRAN-mediated AMPylation of Nsp9 at 1 to 100 uM preincubated for 5 mins followed by ATP and [alpha-32P]ATP addition and measured after 10 mins by phosphorimaging based SDS-PAGE analysis; settings: dose 1-100 µM, time 15.0 min
[17] = test system: Severe acute respiratory syndrome coronavirus 2; test: Inhibition of SARS-CoV-2 Nsp9/Nsp12 using 5'-pppLS10 as substrate assessed as inhibition of NiRAN-mediated UMPylation of Nsp9 at 1 to 100 uM preincubated for 5 mins followed by UTP and [alpha-32P]UTP addition and measured after 10 mins by phosphorimaging based SDS-PAGE analysis; settings: dose 1-100 µM, time 15.0 min
[18] = test system: SARS-CoV-2; test: Antiviral activity against SARS-CoV-2 infected in African green monkey Vero cells assessed as reduction in viral N protein level at 0.1 uM measured after 1 day by Western blot analysis; format: functional, organism-based; settings: Severe acute respiratory syndrome coronavirus 2
[19] = biological target: Replicase polyprotein 1ab (Severe acute respiratory syndrome coronavirus 2) (UniProt P0DTD1); test: as §2, with “UTP and GTP/CTP” for “UTP”

Compound	EC50 [1]	CC50 at 48 h [2]	selectivity ratio [3]	also measured
CC(C)OC(=O)[C@H](C)N[P@](=O)(OC[C@H]1S[C@@H](n2ccc(=O)[nH]c2=O)[C@H](O)[C@@H]1O)Oc1ccccc1	> 100 µM	> 100 µM	–	–
Nc1nc2c(ncn2[C@@H]2S[C@H](CO)[C@@H](O)[C@H]2O)c(=O)[nH]1	48.3 µM	> 100 µM	> 2.07	–
CC(C)C(=O)OC[C@H]1O[C@@H](n2cc/c(=N\O)[nH]c2=O)[C@H](O)[C@@H]1O [MOLNUPIRAVIR]	–	–	–	Activity [4]: Active; Activity [5]: Active; survival at 50 mg/kg [6]: 60%
C[C@@]1(F)[C@H](O)[C@@H](COP(=O)(O)OP(=O)(O)OP(=O)(O)O)O[C@H]1n1cnc2c(=O)[nH]c(N)nc21	–	–	–	inhibition [7]: Active
N#C[C@@]1(c2ccc3c(N)ncnn23)O[C@H](COP(=O)(O)OP(=O)(O)OP(=O)(O)O)[C@@H](O)[C@H]1O	–	–	–	inhibition ([8]; dose 100.0 µM, time 30.0 min): Not active; Formation Of 27-Mer Product Observed; inhibition [9]: Not active; Formation Of Full-Length 40-Mer Product Is Still Prevented; inhibition [10]: Minimal_effect
C[C@@]1(F)[C@H](O)[C@@H](COP(=O)(O)OP(=O)(O)OP(=O)(O)O)O[C@H]1n1ccc(=O)[nH]c1=O	–	–	–	inhibition [11]: inactive; inhibition ([12]; dose 100.0 µM, time 30.0 min): inactive
Nc1ncnc2c1ncn2[C@@H]1S[C@H](CO)[C@@H](O)[C@H]1O	8.82 µM	94.3 µM	10.7	–
Nc1ccn([C@@H]2S[C@H](CO)[C@@H](O)[C@H]2O)c(=O)n1	2.4 µM	> 100 µM	> 41.7	–
O=c1ccn([C@@H]2S[C@H](COP(=O)(O)OP(=O)(O)OP(=O)(O)O)[C@@H](O)[C@H]2O)c(=O)[nH]1	–	–	–	inhibition [13]: Dose-dependent-effect; Transcripts Remained Below 27 Nucleotides; inhibition [14]: Dose-dependent-effect; inhibition [15]: Dose-dependent-effect; inhibition ([12]; 100 uM): Active; Compound Led To Rna Products Longer Than 20 Nucleotides But Did Not Reach 27-Mer Rna; inhibition [16]: Active; inhibition [17]: Active
Cc1cn([C@@H]2S[C@H](CO)[C@@H](O)[C@H]2O)c(=O)[nH]c1=O	> 100 µM	> 100 µM	–	–
CC(C)C(=O)OC[C@H]1S[C@@H](n2ccc(=O)[nH]c2=O)[C@H](O)[C@@H]1O	26.8 µM	> 100 µM	> 3.73	–
O=c1nc(NO)ccn1[C@@H]1O[C@H](CO)[C@@H](O)[C@H]1O [N-HYDROXYCYTIDINE]	1.03 µM	38.6 µM	37.5	Activity [18]: Active
C[C@H](Cn1cnc2c(N)ncnc21)OCP(=O)(O)OP(=O)(O)OP(=O)(O)O	–	–	–	inhibition ([8]; 100 uM): Active; Compound Produced A Primer Extension Of ~22 Nucleotides Similar To Atp Starvation Condition; inhibition [19]: Active; Compound Produced A Primer Extension Of ~22 Nucleotides Similar To Atp Starvation Condition

Reference: ChEMBL document CHEMBL6182943, “Identification of 4'-Thiouridine as an Orally Available Antiviral Agent Targeting Both RdRp and NiRAN Functions of SARS-CoV-2 Nsp12” (J Med Chem, 2025)
